Reference: PubChem BioAssay AID1745844 (Carcinogenic Potency Database (CPDB), 2022)
“And” between values parts separate entries of the source, which are not always exact repeats. Identical values can stand only once. The source made the active and inactive calls. How the calls were made is not given here.

Tested on: rodent lifetime carcinogenesis bioassay, tumor incidence TD50
Assay: chronic cancer bioassays in animals – CPDB, compiled studies (AID 1745844)

## C=CC(=C)C
mouse, strain B6C3F1, females, inhaled, site: Harderian gland, lesion: adenoma, dosed 80 weeks, study length 105 weeks
  TD50: 319 mg/kg/day
mouse, strain B6C3F1, females, inhaled, site: pituitary gland, lesion: pars distalis adenoma, dosed 80 weeks, study length 105 weeks
  TD50: 247 mg/kg/day
mouse, strain B6C3F1, females, inhaled, site: spleen, lesion: hemangiosarcoma, dosed 80 weeks, study length 105 weeks
  TD50: 682 mg/kg/day
mouse, strain B6C3F1, males, inhaled, site: Harderian gland, lesion: adenoma + carcinoma, dosed 26 weeks, study length 53 weeks
  TD50: 96.8 mg/kg/day
mouse, strain B6C3F1, males, inhaled, site: Harderian gland, lesion: adenoma, dosed 26 weeks, study length 53 weeks
  TD50: 96.8 mg/kg/day
mouse, strain B6C3F1, males, inhaled, site: Harderian gland, lesion: adenoma, dosed 40 weeks, study length 105 weeks
  TD50: 739 mg/kg/day
mouse, strain B6C3F1, males, inhaled, site: Harderian gland, lesion: adenoma, dosed 80 weeks, study length 96 weeks
  TD50: 711 mg/kg/day
mouse, strain B6C3F1, males, inhaled, site: Harderian gland, lesion: adenoma, dosed 80 weeks, study length 105 weeks
  TD50: 881 mg/kg/day
mouse, strain B6C3F1, males, inhaled, site: Harderian gland, lesion: carcinoma, dosed 26 weeks, study length 53 weeks
  TD50: 14700 mg/kg/day
mouse, strain B6C3F1, males, inhaled, site: Harderian gland, lesion: carcinoma, dosed 80 weeks, study length 96 weeks
  TD50: 12800 mg/kg/day
mouse, strain B6C3F1, males, inhaled, site: Harderian gland, lesion: carcinoma, dosed 80 weeks, study length 105 weeks
  TD50: 15000 mg/kg/day
mouse, strain B6C3F1, males, inhaled, site: any site (literature study), lesion: several types, types named in the paper, dosed 26 weeks, study length 53 weeks
  TD50: 348 mg/kg/day
mouse, strain B6C3F1, males, inhaled, site: forestomach + Harderian gland + liver + lung, lesion: squamous-cell carcinoma + squamous-cell papilloma + adenoma + carcinoma + hepatocellular adenoma + hepatocellular carcinoma + alveol, dosed 26 weeks, study length 53 weeks
  TD50: 355 mg/kg/day
mouse, strain B6C3F1, males, inhaled, site: forestomach, lesion: squamous-cell carcinoma + squamous-cell papilloma, dosed 26 weeks, study length 53 weeks
  TD50: 1310 mg/kg/day
mouse, strain B6C3F1, males, inhaled, site: forestomach, lesion: squamous-cell carcinoma, dosed 26 weeks, study length 53 weeks
  TD50: 4850 mg/kg/day
mouse, strain B6C3F1, males, inhaled, site: forestomach, lesion: squamous-cell carcinoma, dosed 80 weeks, study length 96 weeks
  TD50: 25800 mg/kg/day
mouse, strain B6C3F1, males, inhaled, site: forestomach, lesion: squamous-cell carcinoma, dosed 80 weeks, study length 105 weeks
  TD50: 22200 mg/kg/day
mouse, strain B6C3F1, males, inhaled, site: forestomach, lesion: squamous-cell papilloma, dosed 26 weeks, study length 53 weeks
  TD50: 1860 mg/kg/day
mouse, strain B6C3F1, males, inhaled, site: forestomach, lesion: squamous-cell papilloma, dosed 40 weeks, study length 105 weeks
  TD50: 15600 mg/kg/day
mouse, strain B6C3F1, males, inhaled, site: forestomach, lesion: squamous-cell papilloma, dosed 80 weeks, study length 96 weeks
  TD50: 25800 mg/kg/day
mouse, strain B6C3F1, males, inhaled, site: forestomach, lesion: squamous-cell papilloma, dosed 80 weeks, study length 105 weeks
  TD50: 45000 mg/kg/day
mouse, strain B6C3F1, males, inhaled, site: heart, lesion: hemangiosarcoma, dosed 40 weeks, study length 105 weeks
  TD50: 32900 mg/kg/day
mouse, strain B6C3F1, males, inhaled, site: heart, lesion: hemangiosarcoma, dosed 80 weeks, study length 96 weeks
  TD50: 25800 mg/kg/day
mouse, strain B6C3F1, males, inhaled, site: heart, lesion: hemangiosarcoma, dosed 80 weeks, study length 105 weeks
  TD50: 39000 mg/kg/day
mouse, strain B6C3F1, males, inhaled, site: liver, lesion: hepatocellular adenoma + hepatoblastoma + hepatocellular carcinoma, dosed 26 weeks, study length 53 weeks
  TD50: 183 mg/kg/day
mouse, strain B6C3F1, males, inhaled, site: liver, lesion: hepatocellular adenoma + hepatocellular carcinoma, dosed 26 weeks, study length 53 weeks
  TD50: 183 mg/kg/day
mouse, strain B6C3F1, males, inhaled, site: liver, lesion: hepatocellular adenoma, dosed 26 weeks, study length 53 weeks
  TD50: 150 mg/kg/day
mouse, strain B6C3F1, males, inhaled, site: liver, lesion: hepatocellular adenoma, dosed 40 weeks, study length 105 weeks
  TD50: 1070 mg/kg/day
mouse, strain B6C3F1, males, inhaled, site: liver, lesion: hepatocellular adenoma, dosed 80 weeks, study length 96 weeks
  TD50: 1760 mg/kg/day
mouse, strain B6C3F1, males, inhaled, site: liver, lesion: hepatocellular adenoma, dosed 80 weeks, study length 105 weeks
  TD50: 1570 mg/kg/day
mouse, strain B6C3F1, males, inhaled, site: liver, lesion: hepatocellular carcinoma, dosed 26 weeks, study length 53 weeks
  TD50: 1270 mg/kg/day
mouse, strain B6C3F1, males, inhaled, site: liver, lesion: hepatocellular carcinoma, dosed 40 weeks, study length 105 weeks
  TD50: 2330 mg/kg/day
mouse, strain B6C3F1, males, inhaled, site: liver, lesion: hepatocellular carcinoma, dosed 80 weeks, study length 96 weeks
  TD50: 3290 mg/kg/day
mouse, strain B6C3F1, males, inhaled, site: liver, lesion: hepatocellular carcinoma, dosed 80 weeks, study length 105 weeks
  TD50: 4850 mg/kg/day
mouse, strain B6C3F1, males, inhaled, site: lung, lesion: alveolar/bronchiolar adenoma + alveolar/bronchiolar carcinoma, dosed 26 weeks, study length 53 weeks
  TD50: 752 mg/kg/day
mouse, strain B6C3F1, males, inhaled, site: lung, lesion: alveolar/bronchiolar adenoma, dosed 26 weeks, study length 53 weeks
  TD50: 836 mg/kg/day
mouse, strain B6C3F1, males, inhaled, site: lung, lesion: alveolar/bronchiolar adenoma, dosed 40 weeks, study length 105 weeks
  TD50: 908 mg/kg/day
mouse, strain B6C3F1, males, inhaled, site: lung, lesion: alveolar/bronchiolar adenoma, dosed 80 weeks, study length 96 weeks
  TD50: 4810 mg/kg/day
mouse, strain B6C3F1, males, inhaled, site: lung, lesion: alveolar/bronchiolar adenoma, dosed 80 weeks, study length 105 weeks
  TD50: 1660 mg/kg/day
mouse, strain B6C3F1, males, inhaled, site: lung, lesion: alveolar/bronchiolar carcinoma, dosed 26 weeks, study length 53 weeks
  TD50: 2790 mg/kg/day
mouse, strain B6C3F1, males, inhaled, site: lung, lesion: alveolar/bronchiolar carcinoma, dosed 40 weeks, study length 105 weeks
  TD50: 9230 mg/kg/day
mouse, strain B6C3F1, males, inhaled, site: lung, lesion: alveolar/bronchiolar carcinoma, dosed 80 weeks, study length 96 weeks
  TD50: 8410 mg/kg/day
mouse, strain B6C3F1, males, inhaled, site: lung, lesion: alveolar/bronchiolar carcinoma, dosed 80 weeks, study length 105 weeks
  TD50: 6680 mg/kg/day
mouse, strain B6C3F1, males, inhaled, site: lymphoreticular system, lesion: histiocytic sarcoma, dosed 40 weeks, study length 105 weeks
  TD50: 4430 mg/kg/day
mouse, strain B6C3F1, males, inhaled, site: lymphoreticular system, lesion: histiocytic sarcoma, dosed 80 weeks, study length 96 weeks
  TD50: 3450 mg/kg/day
mouse, strain B6C3F1, males, inhaled, site: lymphoreticular system, lesion: histiocytic sarcoma, dosed 80 weeks, study length 105 weeks
  TD50: 150000 mg/kg/day
mouse, strain B6C3F1, males, inhaled, site: spleen, lesion: hemangiosarcoma, dosed 80 weeks, study length 96 weeks
  TD50: 25800 mg/kg/day
rat, strain Fischer 344, females, inhaled, site: any site (literature study), lesion: several types, types named in the paper, dosed 105 weeks, study length 105 weeks
  TD50: 6940 mg/kg/day
rat, strain Fischer 344, females, inhaled, site: brain, meninges, lesion: granular-cell tumor, benign, dosed 105 weeks, study length 105 weeks
  TD50: 40600 mg/kg/day
rat, strain Fischer 344, females, inhaled, site: brain, meninges, lesion: sarcoma, dosed 105 weeks, study length 105 weeks
  TD50: 50800 mg/kg/day
rat, strain Fischer 344, females, inhaled, site: brain, lesion: astrocytoma, benign, dosed 105 weeks, study length 105 weeks
  carcinogen call: e
rat, strain Fischer 344, females, inhaled, site: brain, lesion: malignant glioma, dosed 105 weeks, study length 105 weeks
  TD50: 30800 mg/kg/day
rat, strain Fischer 344, females, inhaled, site: brain, lesion: medulloblastoma, malignant, dosed 105 weeks, study length 105 weeks
  TD50: 52800 mg/kg/day
rat, strain Fischer 344, females, inhaled, site: liver, lesion: hepatocellular adenoma + hepatoblastoma + hepatocellular carcinoma, dosed 105 weeks, study length 105 weeks
  TD50: 25300 mg/kg/day
rat, strain Fischer 344, females, inhaled, site: mammary gland, lesion: fibroadenoma + fibroadenoma, multiple, dosed 105 weeks, study length 105 weeks
  TD50: 3340 mg/kg/day
rat, strain Fischer 344, females, inhaled, site: mammary gland, lesion: fibroadenoma, multiple, dosed 105 weeks, study length 105 weeks
  TD50: 206 mg/kg/day
rat, strain Fischer 344, males, inhaled, site: kidney + mammary gland + testis, lesion: tubule adenoma + carcinoma + fibroadenoma + fibroadenoma, multiple + interstitial-cell adenoma, bilateral + interstitial-cell aden, dosed 104 weeks, study length 104 weeks
  TD50: 988 mg/kg/day
rat, strain Fischer 344, males, inhaled, site: kidney, lesion: tubule adenoma + tubule carcinoma, dosed 104 weeks, study length 104 weeks
  TD50: 3150 mg/kg/day and 2290 mg/kg/day
rat, strain Fischer 344, males, inhaled, site: kidney, lesion: tubule adenoma, dosed 104 weeks, study length 104 weeks
  TD50: 3150 mg/kg/day and 2290 mg/kg/day
rat, strain Fischer 344, males, inhaled, site: mammary gland, lesion: carcinoma + fibroadenoma, dosed 104 weeks, study length 104 weeks
  TD50: 670 mg/kg/day
rat, strain Fischer 344, males, inhaled, site: mammary gland, lesion: carcinoma, dosed 104 weeks, study length 104 weeks
  TD50: 7880 mg/kg/day
rat, strain Fischer 344, males, inhaled, site: mammary gland, lesion: fibroadenoma + fibroadenoma, multiple, dosed 104 weeks, study length 104 weeks
  TD50: 655 mg/kg/day
rat, strain Fischer 344, males, inhaled, site: mammary gland, lesion: fibroadenoma, multiple, dosed 104 weeks, study length 104 weeks
  TD50: 2220 mg/kg/day
rat, strain Fischer 344, males, inhaled, site: mammary gland, lesion: fibroadenoma, dosed 104 weeks, study length 104 weeks
  TD50: 655 mg/kg/day
rat, strain Fischer 344, males, inhaled, site: testis, lesion: interstitial-cell adenoma, bilateral + interstitial-cell adenoma, dosed 104 weeks, study length 104 weeks
  TD50: 914 mg/kg/day
rat, strain Fischer 344, males, inhaled, site: testis, lesion: interstitial-cell adenoma, dosed 26 weeks, study length 52 weeks
  TD50: 316 mg/kg/day

## Cc1cc(N=Nc2c(O)ccc3ccccc23)c(S(=O)(=O)O)cc1Cl
mouse, strain B6C3F1, females, in feed, site: any site (literature study), lesion: several types, types named in the paper, dosed 103 weeks, study length 105 weeks
  TD50: 18200 mg/kg/day (inactive)
mouse, strain B6C3F1, females, in feed, site: liver, lesion: hepatocellular adenoma + hepatocellular carcinoma + neoplastic nodule, dosed 103 weeks, study length 105 weeks
  TD50: 9240 mg/kg/day
mouse, strain B6C3F1, females, in feed, site: lung, lesion: alveolar/bronchiolar adenoma + alveolar/bronchiolar carcinoma, dosed 103 weeks, study length 105 weeks
  TD50: 9200 mg/kg/day
mouse, strain B6C3F1, males, in feed, site: any site (literature study), lesion: several types, types named in the paper, dosed 103 weeks, study length 104 weeks
  TD50: 2120 mg/kg/day (inactive)
mouse, strain B6C3F1, males, in feed, site: liver, lesion: hepatocellular adenoma + hepatocellular carcinoma + neoplastic nodule, dosed 103 weeks, study length 104 weeks
  TD50: 781 mg/kg/day
mouse, strain B6C3F1, males, in feed, site: lung, lesion: alveolar/bronchiolar adenoma + alveolar/bronchiolar carcinoma, dosed 103 weeks, study length 104 weeks
  TD50: 5390 mg/kg/day
rat, strain Fischer 344, females, in feed, site: liver, lesion: hepatocellular adenoma + hepatocellular carcinoma + neoplastic nodule, dosed 103 weeks, study length 104 weeks
  TD50: 1140 mg/kg/day
rat, strain Fischer 344, females, in feed, site: liver, lesion: neoplastic nodule, dosed 103 weeks, study length 104 weeks
  TD50: 1140 mg/kg/day
rat, strain Fischer 344, males, in feed, site: any site (literature study), lesion: several types, types named in the paper, dosed 103 weeks, study length 104 weeks
  TD50: 331 mg/kg/day
rat, strain Fischer 344, males, in feed, site: liver + spleen, lesion: hepatocellular carcinoma + neoplastic nodule + fibrosarcoma + leiomyosarcoma + osteosarcoma + sarcoma, NOS, dosed 103 weeks, study length 104 weeks
  TD50: 104 mg/kg/day
rat, strain Fischer 344, males, in feed, site: liver, lesion: hepatocellular adenoma + hepatocellular carcinoma + neoplastic nodule, dosed 103 weeks, study length 104 weeks
  TD50: 357 mg/kg/day
rat, strain Fischer 344, males, in feed, site: liver, lesion: hepatocellular carcinoma + neoplastic nodule, dosed 103 weeks, study length 104 weeks
  TD50: 357 mg/kg/day
rat, strain Fischer 344, males, in feed, site: liver, lesion: neoplastic nodule, dosed 103 weeks, study length 104 weeks
  TD50: 265 mg/kg/day
rat, strain Fischer 344, males, in feed, site: spleen, lesion: fibrosarcoma + leiomyosarcoma + osteosarcoma + sarcoma, NOS, dosed 103 weeks, study length 104 weeks
  TD50: 146 mg/kg/day
rat, strain Fischer 344, males, in feed, site: spleen, lesion: fibrosarcoma, dosed 103 weeks, study length 104 weeks
  TD50: 211 mg/kg/day
rat, strain Fischer 344, males, in feed, site: spleen, lesion: osteosarcoma, dosed 103 weeks, study length 104 weeks
  TD50: 728 mg/kg/day
rat, strain Osborne-Mendel, females, in feed, site: pituitary gland, lesion: adenoma, dosed 108 weeks, study length 108 weeks
  carcinogen call: negative (inactive)
rat, strain Osborne-Mendel, males, in feed, site: all sites, lesion: fibrosarcoma, dosed 108 weeks, study length 108 weeks
  carcinogen call: negative (inactive)
rat, strain Osborne-Mendel, males, in feed, site: testis, lesion: interstitial-cell adenoma, dosed 108 weeks, study length 108 weeks
  TD50: 28600 mg/kg/day (inactive)

## CSCCC(N)C(=O)O (centres undefined)
mouse, strain C3H/HeN, males, in feed, site: liver, lesion: hepatocellular adenoma, dosed 52 weeks, study length 52 weeks
  TD50: 4160 mg/kg/day
mouse, strain C3H/HeN, males, in feed, site: liver, lesion: hepatocellular carcinoma, dosed 52 weeks, study length 52 weeks
  TD50: 4470 mg/kg/day
mouse, strain C3H/HeN, males, in feed, site: liver, lesion: several types, types named in the paper, dosed 52 weeks, study length 52 weeks
  TD50: 2000 mg/kg/day
rat, strain Fischer 344, males, in feed, site: liver, lesion: neoplastic nodule, dosed 72 weeks, study length 103 weeks
  carcinogen call: negative (inactive)
